Measurements taken from patent US9315508B2, “Treating diabetes with dipeptidyl peptidase-IV inhibitors” (Merck Sharp & Dohme Corp., priority 2012, dated 2016).

Assays:
mouse = mouse model of cyclophosphamide-induced neutropenia; cited from earlier work
rats = conditions: doubled from day 7 to day 14; cited from earlier work
[1] = biological target: dipeptidyl peptidase-IV enzyme (DPP-4) (Homo sapiens (Human), UniProt P27487); assay: continuous fluorometric DPP-4 inhibition assay with substrate Gly-Pro-AMC; type: biochemical; conditions: soluble human DPP-4, Gly-Pro-AMC substrate
Sequence of dipeptidyl peptidase-IV enzyme (DPP-4) (P27487 29-766): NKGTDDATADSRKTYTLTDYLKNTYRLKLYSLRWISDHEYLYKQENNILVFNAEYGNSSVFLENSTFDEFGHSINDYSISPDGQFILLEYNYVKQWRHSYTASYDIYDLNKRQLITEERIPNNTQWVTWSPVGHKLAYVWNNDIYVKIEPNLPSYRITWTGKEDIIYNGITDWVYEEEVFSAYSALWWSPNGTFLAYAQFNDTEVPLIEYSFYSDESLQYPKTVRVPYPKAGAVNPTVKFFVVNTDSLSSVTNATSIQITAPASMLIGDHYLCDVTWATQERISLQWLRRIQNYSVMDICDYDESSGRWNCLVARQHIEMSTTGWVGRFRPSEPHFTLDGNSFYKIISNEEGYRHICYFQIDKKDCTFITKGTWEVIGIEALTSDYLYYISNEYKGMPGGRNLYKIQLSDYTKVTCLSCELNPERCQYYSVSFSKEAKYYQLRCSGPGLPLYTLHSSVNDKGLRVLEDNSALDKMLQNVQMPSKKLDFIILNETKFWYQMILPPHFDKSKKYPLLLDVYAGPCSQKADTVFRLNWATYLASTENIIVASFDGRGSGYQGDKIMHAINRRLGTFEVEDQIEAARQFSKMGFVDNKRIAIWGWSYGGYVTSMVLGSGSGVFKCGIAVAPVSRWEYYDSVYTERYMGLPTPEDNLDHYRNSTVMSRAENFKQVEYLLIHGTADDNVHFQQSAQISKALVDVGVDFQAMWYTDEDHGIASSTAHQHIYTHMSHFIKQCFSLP
Method: Inhibition constants are determined as follows. A continuous fluorometric assay is employed with the substrate Gly-Pro-AMC, which is cleaved by DPP-4 to release the fluorescent AMC leaving group. The kinetic parameters that describe this reaction are as follows: Km=50 μM; kcat=75 s^−1; kcat/Km=1.5×10^6 M^−1s^−1. A typical reaction contains approximately […], 50 μM Gly-Pro-AMC, and buffer (100 mM HEPES, pH 7.5, 0.1 mg/ml BSA) in a total reaction volume of 100 μL. Liberation of AMC is monitored continuously in a 96-well plate fluorometer using an excitation wavelength of 360 nm and an emission wavelength of 460 nm. Under these conditions, approximately 0.8 μM AMC is produced in 30 minutes at 25 degrees C. The enzyme used in these studies was soluble (transmembrane domain and cytoplasmic extension excluded) human protein produced in a baculovirus expression system (Bac-To-Bac, Gibco BRL). […] To measure the dissociation constants for compounds, solutions of inhibitor in DMSO were added to reactions containing enzyme and substrate (final DMSO concentration is 1%). All experiments were conducted at room temperature using the standard reaction conditions described above. To determine the dissociation constants (Ki), reaction rates were fit by non-linear regression to the Michaelis-Menton equation for competitive inhibition. The errors in reproducing the dissociation constants are typically less than two-fold.

DPP-4 = DPP-4 (Homo sapiens (Human), UniProt P27487); conditions: cited from earlier work
Sequence of DPP-4 (P27487 39-766, species assumed): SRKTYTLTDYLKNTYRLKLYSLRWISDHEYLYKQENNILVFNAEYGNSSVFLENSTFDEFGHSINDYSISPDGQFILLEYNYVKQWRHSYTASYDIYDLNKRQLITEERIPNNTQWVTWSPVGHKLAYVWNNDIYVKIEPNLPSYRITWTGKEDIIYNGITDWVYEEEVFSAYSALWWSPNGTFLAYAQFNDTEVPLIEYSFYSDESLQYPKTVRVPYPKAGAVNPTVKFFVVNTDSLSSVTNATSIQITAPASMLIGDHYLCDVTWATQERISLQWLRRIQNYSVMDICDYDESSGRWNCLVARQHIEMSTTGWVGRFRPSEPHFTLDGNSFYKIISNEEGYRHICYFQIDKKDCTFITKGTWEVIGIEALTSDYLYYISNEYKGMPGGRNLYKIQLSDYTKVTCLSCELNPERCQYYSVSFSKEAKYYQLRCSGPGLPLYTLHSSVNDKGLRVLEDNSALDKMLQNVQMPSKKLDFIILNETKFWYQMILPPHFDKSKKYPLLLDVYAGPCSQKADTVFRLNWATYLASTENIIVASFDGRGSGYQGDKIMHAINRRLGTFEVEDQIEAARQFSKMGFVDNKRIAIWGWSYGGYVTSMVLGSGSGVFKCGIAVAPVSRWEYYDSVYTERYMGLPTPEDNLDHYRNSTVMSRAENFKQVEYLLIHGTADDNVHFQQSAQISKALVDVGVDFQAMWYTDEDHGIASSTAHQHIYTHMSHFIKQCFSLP

Row | Structure (SMILES) | IC50 [1] | other results
1 | CC(C)[C@H](N)C(=O)N1CCC[C@H]1B(O)O [Val-Boro-Pro] | – | hematopoiesis (mouse): stimulated hematopoiesis
2 | CC(C)N1CCC(c2ccccc2)(c2ccccc2)CC1 [Prodipine, Pro-Pro-diphenyl-phosphonate] | – | cardiac allograft survival (rats): 14 day
3 | N[C@H]1CC(N2Cc3c[nH]nc3C2)c2ccccc2[C@@H]1c1cc(F)ccc1F (stereo partly drawn) [Example 1] | > 1000 nM | –
4 | CC[C@H](C)[C@H](N)C(=O)N1CCC[C@H]1C(=O)N[C@H](C(=O)O)[C@@H](C)CC [diprotin A] | – | degradation of GRF in plasma to GRF[3-44] (DPP-4): prevented
5 | CS(=O)(=O)n1cc2c(n1)CN([C@@H]1C[C@H](N)[C@@H](c3cc(F)ccc3F)[C@H]3CC13)C2 (stereo partly drawn) [Example 2] | 9 nM | –
6 | CS(=O)(=O)n1cc2c(n1)CN([C@@H]1C[C@H](N)[C@@H](c3cc(F)ccc3F)[C@@H]3C[C@@H]31)C2 [Example 3] | 5.4 nM | –
